The Ki is a dissociation constant, usually derived from enzyme kinetics or from competition with a known ligand. High values mean lower affinity, low ones higher affinity.

These results are taken from US6528618B1, “Anti-inflammatory peptides derived from C-reactive protein” (Yeda Research and Development Co. Ltd., priority 1997, dated 2003).

Assay [1] concerns the target T1, human leukocyte elastase (hLE) (Homo sapiens, UniProt P08246).
T1 construct: Neutrophils (1.4 billion) were isolated from whole blood obtained from a single healthy laboratory donor; from tissue; host or cells: neutrophils from whole blood of a single healthy donor
T1 sequence (P08246 30-247 limits assumed): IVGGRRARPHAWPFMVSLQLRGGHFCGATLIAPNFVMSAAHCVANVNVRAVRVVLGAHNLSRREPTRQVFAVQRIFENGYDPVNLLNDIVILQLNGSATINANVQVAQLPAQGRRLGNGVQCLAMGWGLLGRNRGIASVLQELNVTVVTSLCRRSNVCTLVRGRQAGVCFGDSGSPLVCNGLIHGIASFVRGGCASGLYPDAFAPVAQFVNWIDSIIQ
The assay can be described thus: In vitro inhibition of hLE (cleavage of MeOSuc-AAPV-NA). The assay is classed as biochemical. To be noted: for Ki: hLE Ki [μM], Table 2, substrate MeOSuc-AAPV-NA 200 μM, pH 7.4, 37 C. The method, then: (§1) The enzymatic activity was assayed with MeOSuc-AAPV-NA for hLE determination and Suc-AAPF-NA for hCG determination (both in 100 mM Hepes buffer, pH 7.4, containing 0.05% of the […] detergent Brij-35). The activities of the individual enzymatic fractions were 100% free from cross-contamination. […] The fractions containing hLE and hCG were dialyzed each against 0.1% pyridinium acetate, pH 5.3, divided into 20 aliquots, lyophilized, and stored at −20 ° C. until use.
(v) Inhibition experiments with hLE: Peptides were dissolved in 100 mM Hepes buffer pH 7.4 containing 0.1% Brij-35 with 10%. DMSO to yield 300 μM solutions, which were used to make further dilutions with the same buffer, and 80 μL aliquots were added in duplicates to 96-well plates. The substrate, 600 μM MeOSuc-AAPV-NA in the same buffer with 5% DMSO, was added to each well in addition to the blank wells, and the plate was placed in the plate reader equilibrated to 37 C (Dynateck MR-6000). Lyophilized aliquots of hLE were dissolved in 1600 μL of 100 mM Hepes buffer without DMSO, and 80 μL of the enzyme solution was added to the peptides and substrate to initiate the reaction. […] The final volume was 240 μL containing: 5% DMSO, 1-100 μM of peptide, 200 μM substrate, and 0.75 μg (˜25 picomol) enzyme.
(viii) Calculations: For hLE, V is determined by fitting a linear equation to the first 6 time-points (10 min) of the kinetics data using the least squares method. […] Several inhibitor concentration in duplicates and two control wells were used to fit a linear equation to graphs of Vo/Vi−1 vs. [I] for each inhibitor using the least squares method (8 data points for each inhibitor). From calculating the error in the slope of the equation, the relative error for Ki was deduced:
Ki={slope*(1+[S]/Km)}^−1because Ki=[I]*{(1+[S]/Km)*(Vo/Vi−1)}^−1.
(§2) The hLE inhibitory capability of CRP-derived peptides was evaluated by inhibiting the enzymatic cleavage of MeOSuc-AAPV-NA as described in Materials and Methods (section v).

In assay [2] the target is T2, human leukocyte cathepsin G (hCG) (Homo sapiens, UniProt P08311).
T2 construct: Neutrophils (1.4 billion) were isolated from whole blood obtained from a single healthy laboratory donor; from tissue; host or cells: neutrophils from whole blood of a single healthy donor
T2 sequence (P08311 21-243 limits assumed): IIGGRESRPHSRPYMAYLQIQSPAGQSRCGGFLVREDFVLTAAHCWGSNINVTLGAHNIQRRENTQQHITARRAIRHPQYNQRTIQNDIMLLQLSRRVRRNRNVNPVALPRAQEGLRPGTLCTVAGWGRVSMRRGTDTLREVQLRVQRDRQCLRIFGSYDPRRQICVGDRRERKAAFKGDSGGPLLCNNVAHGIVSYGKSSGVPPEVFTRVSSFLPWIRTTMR
The assay can be described thus: In vitro inhibition of hCG (cleavage of Suc-AAPF-NA). In kind it is biochemical. To be noted: for Ki: hCG Ki [μM], Table 2, substrate Suc-AAPF-NA 600 μM, pH 7.4. The method, then: as §1
vi) Inhibition experiments with hCG: Similar conditions to hLE inhibition experiments were used except the substrate: 80 μL of 1.80 mM Suc-AAPF-NA. The enzyme was dissolved in 800 μL buffer, and the reaction was monitored every 6 min for 1 hour. The final volume was 240 μL containing: 5% DMSO, 1-100 μM peptide, 600 μM substrate, and 1.2 μg enzyme (about 40 picomol).
For hCG, V is determined by fitting a quadratic equation to the total kinetic data (60 min), using the least squares method and calculating V at t=0.
The hCG inhibitory capability of CRP-derived peptides was evaluated by inhibiting the enzymatic cleavage of Suc-AAPF-NA as described in Materials and Methods (section vi).

For assay [3], the target named is T3, human leukocyte elastase (human, UniProt P08246 30-267).
T3 construct: mature; Active enzyme purified from human neutrophils; also called hLE
T3 sequence (looked up): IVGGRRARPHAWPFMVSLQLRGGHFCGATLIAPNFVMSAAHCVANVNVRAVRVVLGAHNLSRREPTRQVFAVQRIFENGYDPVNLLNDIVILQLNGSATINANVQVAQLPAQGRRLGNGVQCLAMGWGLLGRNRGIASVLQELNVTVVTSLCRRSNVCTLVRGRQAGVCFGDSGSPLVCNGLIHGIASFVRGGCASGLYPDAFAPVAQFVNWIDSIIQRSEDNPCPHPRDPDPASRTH
As to the kind of experiment: hLE enzyme inhibition kinetics, cleavage of MeOSuc-AAPV-NA. The method, then:
(§3) (v) Inhibition experiments with hLE: Peptides were dissolved in 100 mM Hepes buffer pH 7.4 containing 0.1% Brij-35 with 10%. DMSO to yield 300 µM solutions, which were used to make further dilutions with the same buffer, and 80 µL aliquots were added in duplicates to 96-well plates. The substrate, 600 µM MeOSuc-AAPV-NA in the same buffer with 5% DMSO, was added to each well in addition to the blank wells, and the plate was placed in the plate reader equilibrated to 37 C (Dynateck MR-6000). Lyophilized aliquots of hLE were dissolved in 1600 µL of 100 mM Hepes buffer without DMSO, and 80 µL of the enzyme solution was added to the peptides and substrate to initiate the reaction. The kinetics program read the plate at 405 nm every 2 min for 20 min (with a 3 sec shaking period between readings), and plotted the results as well as the average of each duplicate. The final volume was 240 µL containing: 5% DMSO, 1–100 µM of peptide, 200 µM substrate, and 0.75 µg (~25 picomol) enzyme.
as §2

Assay [4] deals with T3, human leukocyte elastase. The description is as above. The method, then:
as §3, §2
This is another data set of the same source.

Entries after “also recorded” stand apart in the source; their conditions may differ. Where a SMILES comes first, the peptide text is derived from it.

Take `CC[C@H](C)[C@H](NC(=O)[C@H](CC(=O)O)NC(=O)[C@H](CCCCN)NC(=O)[C@H](CO)NC(=O)[C@H](Cc1c[nH]c2ccccc12)NC(=O)[C@H](Cc1ccccc1)NC(=O)[C@@H](NC(=O)[C@H](CC(C)C)NC(=O)[C@@H](NC(=O)[C@H](CCC(=O)O)NC(=O)[C@H](CC(N)=O)NC(=O)[C@H](CC(=O)O)NC(=O)[C@H](CCC(N)=O)NC(=O)[C@H](CCCNC(=N)N)NC(=O)[C@H](CCCCN)NC(=O)[C@@H](NC(=O)[C@H](C)N)[C@@H](C)O)[C@@H](C)CC)[C@@H](C)CC)C(=O)NCC(=O)N[C@@H](Cc1ccc(O)cc1)C(=O)N[C@@H](CO)C(=O)N[C@@H](Cc1ccccc1)C(=O)N[C@H](C(=O)N[C@H](C(=O)NCC(=O)NCC(=O)N[C@@H](CO)C(=O)N[C@@H](CCC(=O)O)C(=O)N[C@H](C(=O)N[C@@H](CC(C)C)C(=O)O)[C@@H](C)CC)C(C)C)[C@@H](C)O` [Peptide 17] (H-ATKRQDNEILIFWSKDIGYSFTVGGSEIL-OH; N-terminus and C-terminus assumed): the “hLE inhibitory activity (in words)” value in assay [1] is “reduced inhibitory activity; also recorded: reduction of inhibitory activity”. For the same molecule, in assay [2], the “hCG inhibitory activity (in words)” value is reported as “reduction of inhibitory activity” and the Ki amounted to 5.5 ± 1 µM.
For the molecule `CC[C@H](C)[C@H](NC(=O)[C@H](CC(=O)O)NC(=O)[C@H](CCCN)NC(=O)[C@H](CO)NC(=O)[C@H](Cc1c[nH]c2ccccc12)NC(=O)[C@H](Cc1ccccc1)NC(=O)[C@@H](NC(=O)[C@H](CC(C)C)NC(=O)[C@@H](NC(=O)[C@@H](N)CCC(=O)O)[C@@H](C)CC)[C@@H](C)CC)C(=O)NCC(=O)N[C@@H](Cc1ccc(O)cc1)C(=O)N[C@@H](CO)C(=O)N[C@@H](Cc1ccccc1)C(=O)N[C@H](C(=O)O)[C@@H](C)O` [Peptide 20, Glu-Ile-Leu-Ile-Phe-Trp-Ser-Orn-Asp-Ile-Gly-Tyr-Ser-Phe-Thr] (HELM PEPTIDE1{E.I.L.I.F.W.S.[Orn].D.I.G.Y.S.F.T}$$$$V2.0; N-terminus and C-terminus assumed), in assay [1], the “hLE inhibitory activity (in words)” value was “retained the same level of inhibitory activity as peptide 6”. Moreover, the Ki worked out at 0.25 ± 0.1 µM in assay [1] and 0.25 ± 0.05 µM in assay [2].
The matching figures for `CC[C@H](C)[C@H](NC(=O)[C@H](CC(=O)O)NC(=O)[C@H](CCN)NC(=O)[C@H](CO)NC(=O)[C@H](Cc1c[nH]c2ccccc12)NC(=O)[C@H](Cc1ccccc1)NC(=O)[C@@H](NC(=O)[C@H](CC(C)C)NC(=O)[C@@H](NC(=O)[C@@H](N)CCC(=O)O)[C@@H](C)CC)[C@@H](C)CC)C(=O)NCC(=O)N[C@@H](Cc1ccc(O)cc1)C(=O)N[C@@H](CO)C(=O)N[C@@H](Cc1ccccc1)C(=O)N[C@H](C(=O)O)[C@@H](C)O` [Peptide 21, Glu-Ile-Leu-Ile-Phe-Trp-Ser-DAB-Asp-Ile-Gly-Tyr-Ser-Phe-Thr] (HELM PEPTIDE1{E.I.L.I.F.W.S.[Dab].D.I.G.Y.S.F.T}$$$$V2.0; N-terminus and C-terminus assumed): “retained the same level of inhibitory activity as peptide 6”, 0.2 ± 0.05 µM and 0.85 ± 0.35 µM.
As to `CC[C@H](C)[C@H](NC(=O)[C@H](C)NC(=O)[C@H](CCCCN)NC(=O)[C@H](CO)NC(=O)[C@H](Cc1c[nH]c2ccccc12)NC(=O)[C@H](Cc1ccccc1)NC(=O)[C@@H](NC(=O)[C@H](CC(C)C)NC(=O)[C@@H](NC(=O)[C@@H](N)CCC(=O)O)[C@@H](C)CC)[C@@H](C)CC)C(=O)NCC(=O)N[C@@H](Cc1ccc(O)cc1)C(=O)N[C@@H](CO)C(=O)N[C@@H](Cc1ccccc1)C(=O)N[C@H](C(=O)O)[C@@H](C)O` [Peptide 22, Glu-Ile-Leu-Ile-Phe-Trp-Ser-Lys-Ala-Ile-Gly-Tyr-Ser-Phe-Thr] (H-EILIFWSKAIGYSFT-OH; N-terminus and C-terminus assumed), in assay [1], the “hLE inhibitory activity (in words)” value is reported as “large decrease in inhibition capacity” and the inhibition constant Ki is 3 ± 0.6 µM. This molecule had a Ki in assay [2] of 5.5 ± 1.5 µM.
In the case of `CC[C@H](C)[C@H](NC(=O)[C@H](CCC(=O)O)NC(=O)[C@H](CCCCN)NC(=O)[C@H](CO)NC(=O)[C@H](Cc1c[nH]c2ccccc12)NC(=O)[C@H](Cc1ccccc1)NC(=O)[C@@H](NC(=O)[C@H](CC(C)C)NC(=O)[C@@H](NC(=O)[C@@H](N)CCC(=O)O)[C@@H](C)CC)[C@@H](C)CC)C(=O)NCC(=O)N[C@@H](Cc1ccc(O)cc1)C(=O)N[C@@H](CO)C(=O)N[C@@H](Cc1ccccc1)C(=O)N[C@H](C(=O)O)[C@@H](C)O` [Peptide 23, Glu-Ile-Leu-Ile-Phe-Trp-Ser-Lys-Glu-Ile-Gly-Tyr-Ser-Phe-Thr] (H-EILIFWSKEIGYSFT-OH; N-terminus and C-terminus assumed), the “hLE inhibitory activity (in words)” value in assay [1] was “small decrease in inhibitory activity”. Moreover, in assay [2], the Ki was 0.85 ± 0.25 µM.

B1: peptide 23 (peptide)
peptide: EILIFWSKEIGYSFT
notes: Analog of peptide 6 (CRP62-76) with Asp70 replaced by Glu; also called pep23
B1: in assay [3], the affinity corresponds to a Ki of 550 nM.
For the molecule TFSYGIDKSWFILIE [peptide 24 (reverse sequence of peptide 6)], the “fold less active against peptide 6” value in assay [4] turned out to be 30 fold. Besides, the Ki in assay [3] stood at 10000 nM.
Regarding ATKRQDNEILIFWSKDIGYSFTVGGSEIL (Synthetic 29-mer) [peptide 17 (CRP55-83)], in assay [3], the Ki amounted to 7300 nM.

B2: peptide 26 (peptide)
peptide: EILIFWSVDI
notes: 10-mer analog of peptide 14 (CRP62-71) with Lys69 replaced by Val; also called pep26
In assay [3], B2 gave an inhibitory constant (Ki) of 2000 nM.
